In publication PMC11931052, “Efficacy of dispirotripiperazine PDSTP in a golden Syrian hamster model of SARS-CoV-2 infection” (Frontiers in Microbiology, 2025):
“Also recorded” adds a separate entry of the source.

How the values were obtained:
[1] = Reproductive toxicity: generative function of sexually mature animals; type: in vivo, white laboratory rats; conditions: 10% solution topically on 5% of body surface area for 25 days
Source text: (§1) PDSTP doses tested: 10% solution
(§2) Test subjects: white laboratory rats of both sexes
The drug was applied topically on 5% of body surface area (3x5 cm area) for 25 days.

[2] = tested on: bone marrow, liver, kidney and spleen cells; assay: DNA damage accounting test (DNA Comet); type: in vivo, F1 hybrids of SWAxC57BL/6 mice; conditions: 400 mg/kg and 1000 mg/kg topically
Procedure: (§3) PDSTP doses tested: 400 mg/kg and 1000 mg/kg
(§4) Test subjects: F1 hybrids of SWAxC57BL/6 mice.
Method of administration: topically.

[3] = Reproductive toxicity: embryotoxicity study; type: in vivo, white laboratory rats; conditions: 10% solution, daily topical application, days 6 to 19 of gestation
Source text: as §1, §2
Pregnant rats from 6 to 19 days of gestation received daily topical application of PDSTP on 5% of the body surface area (3x5 cm area).

[4] = tested on: HCoV-OC43; assay: MTT test, HCoV-OC43 in Vero-76 cells; type: cell-based; conditions: Betacoronavirus 1, OC43, Vero 76, read-out: IC50 (HCoV-OC43)
[5] = tested on: HCoV-229E; assay: Plaque reduction assay, HCoV-229E in Vero E6 cells; type: cell-based
Procedure: (§5) Vero E6 cells were incubated in the presence of PDSTP and reference compounds (100.0, 20.0, 4.0, and 0.8 μM concentrations) for 1 h at 37°C in a 5% CO2 and then infected for 1 h with 250 μL of the corresponding virus (SARS-CoV-2 PV10734 or HCoV-229E) dilutions to obtain 50–100 PFU/well. The plates were then incubated for 1 h at 37°C in a 5% CO2 atmosphere. Following the removal of the unabsorbed virus, 400 μL of the medium (D-MEM with L-glutamine, 4,500 mg/L D-glucose, and 1% inactivated FBS) containing 0.75% methyl-cellulose (M0512, viscosity 4,000 cP, Sigma-Aldrich, United States) and the serial dilutions of the compounds were added and incubated for 4 (SARS-CoV-2) or 2 (HCoV-229E) days at 37°C in a 5% CO2 atmosphere. Subsequently, the cells were fixed and stained with a 0.2% crystal violet solution (V5265, Sigma-Aldrich, United States) and then the number of plaques was calculated. The degree of cell growth/viability and viral multiplication at each drug concentration tested was expressed as a percentage of the untreated control. Concentrations resulting in 50% inhibition (CC50 or EC50) were determined using linear regression analysis.

[6] = tested on: mouse bone marrow cells; assay: Chromosomal aberrations in mouse bone marrow cells; type: in vivo, F1 hybrids of SWAxC57BL/6 mice; conditions: 400 mg/kg and 1000 mg/kg topically
Procedure: as §3, §4
Method of administration: topically

[7] = Acute toxicity, intragastric administration, mice; type: in vivo; conditions: maximum dose 1000 mg/kg
[8] = Acute toxicity, intraperitoneal administration, mice; conditions: both sexes, mouse, in vivo, ip, Mice (M/F)
[9] = Allergenicity study, delayed-type hypersensitivity, mice; type: in vivo; conditions: SWA x C57BL/6 mice
[10] = tested on: SARS-CoV-2 clinical isolate 35245; assay: Microtetrazolium (MTT) test, SARS-CoV-2 35245; type: cell-based; conditions: Severe acute respiratory syndrome coronavirus 2, read-out: Antiviral activity IC50 against coronaviruses, SARS-CoV-2 clinical isolate 35245, MTT
Procedure: The compound’s activity against OC43 and SARS-CoV-235245 was based on the inhibition of virus-induced cytopathogenicity in acutely infected Vero-76 cells (MOI 0.01). Briefly, Vero-76 cells were seeded in 96-well plates at a density of 3 × 10^4 cells/well and incubated in a growth medium in a 5% CO2 at 37°C overnight. Cell monolayers were then infected with 50 μL of the appropriate viral dilution in maintenance medium [D-MEM and MEM-Earl (Gibco, Thermo Fisher Scientific, MA United States) with L-glutamine (Gibco), 1 mM sodium pyruvate (Gibco), and 0.025 g/L kanamycin (Gibco), supplemented with 0.5% inactivated FBS (Harlan Sera-Lab, Loughborough, United Kingdom), respectively] to give an MOI of 0.01, without or with serial dilutions of test samples. After 6 (HCoV-OC43) and 4/5 (SARS-CoV-2) days of incubation at 37°C, the extent of cell viability was quantified using a tetrazolium-based colorimetric method, in which the reduction of 3-(4,5-dimethylthiazol-2-yl)-2,5-diphenyl-tetrazolium bromide (MTT) by mitochondrial dehydrogenases to a soluble colored formazan was measured using a spectrophotometer (Infinity 200, Tecan Austria GmbH, Austria) at 570 nm, as previously reported ([Sanna et al., 2020]).

[11] = Chronic toxicity, intranasal administration, rabbits; type: in vivo; conditions: repeated administration for 14 days, 10-200 mg/kg
[12] = Chronic toxicity, intranasal administration, rats; type: in vivo; conditions: repeated administration for 14 days, 10-200 mg/kg
[13] = tested on: SARS-CoV-2 clinical isolate VR PV10734; assay: Plaque reduction assay, SARS-CoV-2 VR PV10734 in Vero E6 cells; type: cell-based; conditions: Severe acute respiratory syndrome coronavirus 2, Vero C1008, mean ± SD, read-out: Antiviral activity IC50 against coronaviruses, SARS-CoV-2 clinical isolate VR PV10734, PR
Procedure: as §5

[14] = Acute toxicity, intravenous administration, mice; conditions: both sexes, mouse, in vivo, Mice (M/F)
[15] = tested on: herpes simplex epithelial keratitis; design: method as in Alimbarova et al., 2022; conditions: rabbit model; ref Alimbarova et al., 2022; cited from earlier work

Cc1nc(N2CC[N+]3(CC2)CC[N+]2(CCNCC2)CC3)c([N+](=O)[O-])c(N2CC[N+]3(CC2)CC[N+]2(CCNCC2)CC3)n1.Cl.Cl.O.O.O.O.O.O.O.O.O.[Cl-].[Cl-].[Cl-].[Cl-] [PDSTP, 3,3′-(2-methyl-5-nitropyrimidine-4,6-diyl)bis-3,12-diaza-6,9-diazonia-dispiro[5.2.5.2]hexadecane tetrachloride dihydrochloride nonahydrate]
Effect on generative function of sexually mature animals [1]: no pathological effect
Induction of DNA damage (DNA Comet) [2]: does not induce DNA damage
Embryotoxic effect [3]: no adverse embryotoxic effect
IC50 [4]: 700 ± 400 nM
Antiviral activity against alphacoronavirus HCoV-229E [5]: no in vitro activity; also recorded: No antiviral activity was detected
IC50 ([5]; Human coronavirus 229E, Vero C1008, Vero E6, mean ± SD, read-out: Antiviral activity IC50 against coronaviruses, HCoV-229E, PR): > 100000 nM
Induction of chromosomal aberrations [6]: did not reveal the ability to induce chromosomal aberrations
Clinical signs [7]: piloerection and diarrhea, deterioration of hair coat, decreased motor activity, and decreased body weight
Mortality [7]: The death of animals was not recorded
LD50 [8]: 192 mg/kg
Delayed-type hypersensitivity [9]: No delayed-type hypersensitivity was detected
IC50 [10]: 14500 ± 3300 nM
Toxic effect on organs and systems [11]: toxic effect on organs and systems was not revealed
Toxic effect on organs and systems [12]: toxic effect on organs and systems was not revealed
IC50 [13]: 1800 ± 300 nM
LD50 [14]: 150 mg/kg
Reduction of mean progression and corneal lesions [15]: comparable to traditional aciclovir
